Assay results taken from patent publication US20130210794A1, “NANOSTRUCTURED EZETIMIBE COMPOSITIONS, PROCESS FOR THE PREPARATION THEREOF AND PHARMACEUTICAL COMPOSITIONS CONTAINING THEM” (priority 2010, published 2013).

Experiments:
[1] = cited from earlier work
[2] = PAMPA permeability measurement (Example 5); type: in vitro ADME; details: redispersed in distilled water; receiver phosphate buffered saline with 1% sodium lauryl sulphate; UV at 248 nm
Method: Reference Ezetimibe and solid nanostructured Ezetimibe was redispersed in distilled water and permeability was measured across and artificial membrane composed of dodecane with 20% soy lecithin. The sample containing the reference compound was a suspension of crystals visible by the naked eye, while the nanostructured sample was an opalescent colloid solution. The receiver compartment was phosphate buffered saline with 1% sodium lauryl sulphate.

[3] = cited from earlier work; remark: listed apart in the source
[4] = Solubility by UV-VIS measurement (Example 1); type: physicochemical; details: room temperature, UV-VIS at 248 nm, filtered by 100 nm syringe filter
Method: The solubility of nanostructured Ezetimibe compared to the reference form of the active compound was determined in distilled water and 0.05% SDS solution by UV-VIS measurements (Thermo Genesys 10S spectrophotometer) at 248 nm wavelength and room temperature. The redispersed sample was filtered by 100 nm disposable syringe filter.

human plasma proteins = details: cited from earlier work

SMILES	stability ([1]; ambient temperature)	solubility in ethanol, methanol and acetone (descriptive) ([1]; ethanol, methanol, acetone)	solubility in water (descriptive) ([1]; water)	PAMPA permeability [2]	deviation from dose proportionality ([3]; between 5 and 20 mg)	increase of Cmax with food ([3]; consumption of high-fat meals, ZETIA 10-mg tablets)	effect of concomitant food on extent of absorption ([3]; high-fat or non-fat meals, ZETIA 10-mg tablets)	bioavailability (estimated) ([3]; oral)	solubility in 0.05% SDS solution ([4]; 0.05% SDS solution)	solubility in distilled water ([4]; distilled water)	bound to human plasma proteins (human plasma proteins)	mean peak plasma concentration (Cmax) ([3]; in vivo, po, 10 mg)	tmax ([3]; in vivo, po, 10 mg)
O=C1[C@H](CC[C@H](O)c2ccc(F)cc2)[C@@H](c2ccc(O)cc2)N1c1ccc(F)cc1 [Ezetimibe, 1-(4-fluorophenyl)-3(R)-[3-(4-fluorophenyl)-3(S)-hydroxypropyl]-4(S)-(4-hydroxyphenyl)-2-azetidinone]	stable at ambient temperature	freely to very soluble	practically insoluble	under the detection limit	no substantial deviation from dose proportionality	38%	no effect	35-65%	under the detection limit	under the detection limit	–	–	–
O=C(O)[C@H]1O[C@@H](Oc2ccc([C@@H]3[C@@H](CC[C@H](O)c4ccc(F)cc4)C(=O)N3c3ccc(F)cc3)cc2)[C@H](O)[C@@H](O)[C@@H]1O [Ezetimibe-glucuronide]	–	–	–	–	–	–	–	–	–	–	> 90%	45 to 71 ng/mL	1 to 2 h
